Where “and” joins values, the source holds several entries; their conditions need not be identical. Equal values may be shown once. Read-outs that look alike come from different tables or passages of the source.
What was measured:
mold = experiment: Mold growth in starter mash by CO2 formation in headspace (Examples 7, 8); settings: for mold growth (CO2 in headspace), words: 0.2% in starter mash
Procedure: Fungal growth in basal starter mash was studied in compositions supplemented with DLM or Alimet® as the methionine source. Total microbial growth was monitored by measuring carbon dioxide (CO2) formation in sealed vessels at 28° C. over time.
The technique of using a closed system and measuring CO2 formation has been verified as an approximation of the conditions found in grain storage bins. See, e.g., Muir et al., Trans. ASAE, 28(5) 1673-1675 (1985), the contents of which are hereby incorporated by reference in their entirety.
A mash starter mash feed (formulation shown in Table 9, below) was subdivided into three groups: basal (control), 0.2% DLM, or 0.2% Alimet®. The feed studied had no commercial mold inhibitors added, and is representative of a typical broiler feed.
Initial moisture of the feed was 10.8%. After the addition of Alimet® or DLM, the moisture of the samples was adjusted by the addition of 2%, 4%, or 6% sterile distilled water to promote mold growth, achieving three moisture groups: […].
For each study, four replicate samples of each moisture group were mixed, and 600 g of the mixture was placed into 1 L containers, sealed, and placed at 28° C. in a temperature-controlled room. Draeger Detector tubes (CO2-measuring, obtained from Fisher Scientific) were used to measure the developed CO2 at different days following vessel sealing (two measurements were made per week). Draeger Short-Term Detector Tubes are glass tubes filled with inert carrier and an indicating reagent. The reagent produces a colorimetric indication in the presence of a particular gas (CO2). The concentration of gas is read directly from the discoloration on the tube's printed scale.
The specific mold species present were not identified. Statistical analysis was accomplished by using Duncan's multiple range test (SAS). Different letters on individual time points in FIGS. 9-11 indicate statistical differences of P<0.05.
The experiment described above in Example 7 was repeated with blends of 2.0 lb/ton, 1.5 lb/ton, 1.0 lb/ton or 0.5 lb/ton of 65% propionic acid and either […]. The blends were prepared according to the matrix outlined in Table 8, below. The 65% propionic acid was buffered with ammonium hydroxide to a pH of 5.5.

cats = experiment: No-choice acceptance of food, cats (Example 24); type: in vivo; settings: Feline
Excerpt: (§1) Acceptance of food containing […]® or DLM was studied to evaluate dietary consumption under no-choice conditions. […] The urine pH of six of the cats was also monitored. The diets described in Tables 39 and 40 above were used.

dogs = experiment: No-choice acceptance of food, dogs (Example 24); type: in vivo; settings: Canine
Excerpt: as §1

E. coli [1] = type: cell-based; settings: for Δ log: Table 2, 4 h, initial 5.24
Procedure: Colony counts were performed according to standard operating procedures.

L. plantarum = L. plantarum colony counts in broth (Example 1); type: cell-based; settings: for Δ log: Table 3, 6 h, log sample − log initial (5.04)
Procedure: The fresh overnight culture of L. plantarum in brain heart infusion broth were used to inoculate medium 5. The test tubes were incubated under reduced oxygen atmosphere for 6 hours at 37° C. Colony counts were performed.

C. jejuni = C. jejuni colony counts in broth (Example 1); type: cell-based; settings: for Δ log: Table 4, 6 h, initial 5.23
Procedure: C. jejuni grown on Campylobacter blood-free selective agar was used for inoculation. Preston broth was incubated under reduced oxygen atmosphere for 6 hours at 37° C. Colony counts were performed.

Lactobacillus plantarum = experiment: L. plantarum colony counts in broth at pH 3.5 (Example 16); type: cell-based; settings: log 6 hours − log initial (5.61)
Procedure: Fresh overnight culture L. plantarum in Brain Heart Infusion broth is used to inoculate medium 5 at a log 4.1 cfu/mL at pH 3.5. The tubes are incubated under oxygen reduced atmosphere for 6 hours at 37° C. Colony counts are performed according standard procedures.

S. enteritidis = S. enteritidis colony counts in broth (Examples 1-3, 17)
E. coli [2] = experiment: E. coli colony counts over time in soy broth at pH 4 or 7.3 (Example 5); type: cell-based; settings: FIG. 5
Procedure: The cultures were incubated, and colony counts performed at increasing times.

CSCCC(N)C(=O)O (racemic) [DLM, DL-methionine]
mold growth (CO2 in headspace), words (mold; 12.8% moisture, FIG. 11): sharp increase in mold growth after only twenty days
mold growth (CO2 in headspace), words (mold; 16.8% moisture, FIG. 9): showed mold growth within two days
mold growth, overall comparison (mold; FIGS. 9, 10, 11, vs untreated and each other): more likely to develop mold
Total grams consumed, supplemented food (cats; DLM 0.25%): 1,842 grams
Total grams consumed, supplemented food (cats; DLM 0.3%): 1,754 grams
Total grams consumed, supplemented food (dogs; DLM 0.1%): 11,244 grams
Total grams consumed, supplemented food (dogs; DLM 0.15%): 13,542 grams

O=CO [formic acid]
Δ log (E. coli [1]; 0.108 g/L, pH 4.5): −0.05
Δ log (E. coli [1]; 0.108 g/L, pH 6.75): 2.24
Δ log (E. coli [1]; 0.30 g/L, pH 4.5): −0.28
Δ log (E. coli [1]; 0.30 g/L, pH 6.75): 2.26
Δ log (E. coli [1]; 0.83 g/L, pH 4.5): −0.16
Δ log (E. coli [1]; 0.83 g/L, pH 6.75): 2.25
inhibition of E. coli (E. coli [1]; pH 4.5): little or no inhibition
log cfu/mL (E. coli [1]; pH 4.5): 5.19 log cfu/mL and 4.96 log cfu/mL and 5.08 log cfu/mL
log reduction of E. coli growth (E. coli [1]; pH 4.5): approximately 0.1 log
inhibition of E. coli (E. coli [1]; pH 6.75): Neither Alimet® nor formic acid inhibited E. coli
log cfu/mL (E. coli [1]; pH 6.75): 7.48 log cfu/mL and 7.50 log cfu/mL and 7.49 log cfu/mL
inhibition of L. plantarum (L. plantarum): Neither Alimet® nor formic acid inhibited L. plantarum
Δ log (L. plantarum; 0.108 g/L, pH 4.5): 0.71
Δ log (L. plantarum; 0.108 g/L, pH 6.75): 0.84
Δ log (L. plantarum; 0.30 g/L, pH 4.5): 0.70
Δ log (L. plantarum; 0.30 g/L, pH 6.75): 1.19
Δ log (L. plantarum; 0.83 g/L, pH 4.5): 0.52
Δ log (L. plantarum; 0.83 g/L, pH 6.75): 1.15
log cfu/mL (L. plantarum; pH 4.5): 5.75 log cfu/mL and 5.74 log cfu/mL and 5.56 log cfu/mL
Δ log (C. jejuni; 0.108 g/L, pH 4.5): −1.37
Δ log (C. jejuni; 0.108 g/L, pH 6.75): 1.04
Δ log (C. jejuni; 0.30 g/L, pH 4.5): −2.60
Δ log (C. jejuni; 0.30 g/L, pH 6.75): 1.15
Δ log (C. jejuni; 0.83 g/L, pH 4.5): <−3.93
Δ log (C. jejuni; 0.83 g/L, pH 6.75): 1.02
inhibition of C. jejuni (C. jejuni; pH 4.5): comparable inhibition
antibacterial activity against C. jejuni (C. jejuni; pH 6.75): No antibacterial activity
log cfu/mL (C. jejuni; pH 6.75): 6.27 log cfu/mL and 6.38 log cfu/mL and 6.25 log cfu/mL
Δ log (Lactobacillus plantarum; Table 23, 3 g/kg): −2.42
Δ log (Lactobacillus plantarum; Table 23, 5 g/kg): −5.91
effect on inhibiting the growth of S. enteritidis (S. enteritidis; pH 4.5): neither had a significant effect
reduction in S. enteritidis growth (S. enteritidis; pH 4.5): approximately 1.2 log cfu/mL
reduction of growth of S. enteritidis (S. enteritidis; pH 4.5): approximately 1.3 log cfu/mL
growth inhibition of S. enteritidis (S. enteritidis; pH 6.75): ~1 log cfu/mL
inhibition of S. enteritidis (S. enteritidis; pH 6.75): no inhibition
decrease of colony counts of E. coli vs hydrochloric acid (E. coli [2]): better than hydrochloric acid

From patent US7465471B2, “Palatability of aquaculture feed” (Novus International, Inc., priority 2003, dated 2008)
